ChEMBL document CHEMBL5505992, “Novel membrane-targeting isoxanthohumol-amine conjugates for combating methicillin-resistant Staphylococcus aureus (MRSA) infections” (Eur J Med Chem, 2024)
≈ marks a conversion by molar mass, not a printed value. Calls of active or inactive are those of the source. No cut-off for these calls is given here.

Experiments:
Staphylococcus aureus [1] = test: Bactericidal activity against Staphylococcus aureus ATCC 29213 assessed as inhibition of bacterial growth at 8 times MIC measured within 0.5 to 1 hrs by time kill assay; assay type: functional, organism-based; settings: time 0.5-1 hrs
Staphylococcus aureus [2] = test: Antibacterial activity against methicillin-resistant Staphylococcus aureus infected in Kunming mouse skin infection model assessed as decrease in bacterial load at 4 mg/kg,sc measured after 24 hrs relative to control; assay type: functional; set-up: scale not given: the % may be the effect or the level left
Staphylococcus aureus [3] = test: Antibacterial activity against methicillin-resistant Staphylococcus aureus infected in Kunming mouse skin infection model assessed as reduction in inflammatory cells at 4 mg/kg,sc measured after 24 hrs; assay type: functional, organism-based
Staphylococcus aureus [4] = test: Antibacterial activity against methicillin-resistant Staphylococcus aureus infected in Kunming mouse skin infection model assessed as effect on skin abscesses at 4 mg/kg,sc measured after 24 hrs; assay type: functional, organism-based
Staphylococcus aureus [5] = test: Antibacterial activity against methicillin-resistant Staphylococcus aureus infected in Kunming mouse skin infection model assessed as effect on skin abscesses in dorsal surface at 4 mg/kg,sc measured after 24 hrs; assay type: functional, organism-based
Staphylococcus aureus [6] = test: Antibacterial activity against methicillin-resistant Staphylococcus aureus infected in Kunming mouse skin infection model assessed as decrease in bacterial load at 4 mg/kg,sc measured after 24 hrs; assay type: functional
Staphylococcus aureus [7] = test: Antibacterial activity against methicillin-resistant Staphylococcus aureus infected in Kunming mouse skin infection model assessed as reduction in number of bacterial cells at 4 mg/kg,sc measured after 24 hrs; assay type: functional, organism-based
Staphylococcus aureus [8] = test: Bactericidal activity against methicillin-resistant Staphylococcus aureus clinical isolate MRSA-16 assessed as inhibition of bacterial growth at 8 times MIC measured within 0.5 to 1 hrs by time kill assay; assay type: functional, organism-based; settings: time 0.5-1 hrs
Cell membrane [9] = test: Induction of cytoplasmic membrane depolarization in methicillin-resistant Staphylococcus aureus clinical isolate MRSA-16 assessed as increase in fluorescence intensity at 32 ug/ml measured every 2 mins for 20 mins by SYTOX green staining based analysis; assay type: cell membranes; settings: dose 32.0 µg/ml
Cell membrane [10] = test: Induction of cytoplasmic membrane depolarization in methicillin-resistant Staphylococcus aureus clinical isolate MRSA-16 assessed as fold increase in fluorescence intensity at 32 ug/ml measured every 2 mins for 20 mins by SYTOX green staining based analysis; assay type: cell membranes; settings: dose 32.0 µg/ml
Cell membrane [11] = test: Induction of cell membrane depolarization in methicillin-resistant Staphylococcus aureus clinical isolate MRSA-16 assessed as fold increase in fluorescence intensity at 32 ug/ml measured every 2 mins for 20 mins by DISC3(5) staining based analysis; assay type: cell membranes; settings: dose 32.0 µg/ml
Staphylococcus aureus [12] = test: Antibacterial activity against methicillin-resistant Staphylococcus aureus clinical isolate MRSA-23 measured after 16 to 18 hrs by CLSI method; assay type: functional; settings: time 16-18 hrs
Staphylococcus aureus [13] = test: Antibacterial activity against methicillin-resistant Staphylococcus aureus clinical isolate MRSA-11 measured after 16 to 18 hrs by CLSI method; assay type: functional; settings: time 16-18 hrs
Staphylococcus aureus [14] = test: Antibacterial activity against Staphylococcus aureus ATCC 29213 measured after 16 to 18 hrs by CLSI method; assay type: functional; settings: time 16-18 hrs
[15] = Hemolytic activity in sheep erythrocytes incubated for 1 hr by absorbance based analysis; assay type: toxicity, cell-based, Ovis aries, Erythrocyte
Staphylococcus aureus [16] = test: Antibacterial activity against methicillin-resistant Staphylococcus aureus clinical isolate MRSA-22 measured after 16 to 18 hrs by CLSI method; assay type: functional; settings: time 16-18 hrs
Staphylococcus aureus [17] = test: Antibacterial activity against methicillin-resistant Staphylococcus aureus clinical isolate MRSA-14 measured after 16 to 18 hrs by CLSI method; assay type: functional; settings: time 16-18 hrs
Staphylococcus aureus [18] = test: Antibacterial activity against methicillin-resistant Staphylococcus aureus clinical isolate MRSA-18 measured after 16 to 18 hrs by CLSI method; assay type: functional; settings: time 16-18 hrs
Staphylococcus aureus [19] = test: Antibacterial activity against methicillin-resistant Staphylococcus aureus clinical isolate MRSA-21 measured after 16 to 18 hrs by CLSI method; assay type: functional; settings: time 16-18 hrs
Staphylococcus aureus [20] = test: Antibacterial activity against methicillin-resistant Staphylococcus aureus clinical isolate MRSA-13 measured after 16 to 18 hrs by CLSI method; assay type: functional; settings: time 16-18 hrs
Staphylococcus aureus [21] = test: Antibacterial activity against methicillin-resistant Staphylococcus aureus clinical isolate MRSA-16 measured after 16 to 18 hrs by CLSI method; assay type: functional; settings: time 16-18 hrs
[22] = Selectivity index, ratio of HC50 for hemolytic activity in sheep erythrocytes to MIC for antibacterial activity against Staphylococcus aureus ATCC 29213; assay type: toxicity, cell-based; settings: read-out: Selectivity Index
Staphylococcus aureus [23] = test: Antibacterial activity against methicillin-resistant Staphylococcus aureus clinical isolate MRSA-20 measured after 16 to 18 hrs by CLSI method; assay type: functional; settings: time 16-18 hrs
Escherichia coli = test: Antibacterial activity against Escherichia coli ATCC25922 measured after 16 to 18 hrs by CLSI method; assay type: functional; settings: time 16-18 hrs
Staphylococcus aureus [24] = test: Antibacterial activity against methicillin-resistant Staphylococcus aureus clinical isolate MRSA-17 measured after 16 to 18 hrs by CLSI method; assay type: functional; settings: time 16-18 hrs
Staphylococcus aureus [25] = test: Drug resistance, ratio of MIC for Staphylococcus aureus ATCC 29213 after 15 passages exposure to MIC for Staphylococcus aureus ATCC 29213 during first exposure; assay type: functional
Staphylococcus aureus [26] = test: Antibacterial activity against Staphylococcus aureus ATCC 29213 at sub-inhibitory concentration measured after 4 passages for 16 to 18 hrs; assay type: functional, organism-based; settings: time 16-18 hrs

SMILES | MIC (Staphylococcus aureus [12]) [µg/mL] | MIC (Staphylococcus aureus [13]) [µg/mL] | MIC (Staphylococcus aureus [14]) [µg/mL] | HC50 at 1 h [15] [µg/mL] | MIC (Staphylococcus aureus [16]) [µg/mL] | MIC (Staphylococcus aureus [17]) [µg/mL] | MIC (Staphylococcus aureus [18]) [µg/mL] | MIC (Staphylococcus aureus [19]) [µg/mL] | MIC (Staphylococcus aureus [20]) [µg/mL] | MIC (Staphylococcus aureus [21]) [µg/mL] | selectivity ratio [22] | MIC (Staphylococcus aureus [23]) [µg/mL] | MIC (Escherichia coli) [µg/mL] | MIC (Staphylococcus aureus [24]) [µg/mL] | further results
CN[C@H](CC(C)C)C(=O)N[C@H]1C(=O)N[C@@H](CC(N)=O)C(=O)N[C@H]2C(=O)N[C@H]3C(=O)N[C@H](C(=O)N[C@H](C(=O)O)c4cc(O)cc(O)c4-c4cc3ccc4O)[C@H](O)c3ccc(c(Cl)c3)Oc3cc2cc(c3O[C@@H]2O[C@H](CO)[C@@H](O)[C@H](O)[C@H]2O[C@H]2C[C@](C)(N)[C@H](O)[C@H](C)O2)Oc2ccc(cc2Cl)[C@H]1O [VANCOMYCIN] |  |  |  |  |  |  |  |  |  |  |  |  |  |  | Activity (Staphylococcus aureus [1]): Active; Activity (Staphylococcus aureus [2]): 97.67%; Activity (Staphylococcus aureus [3]): Active; Activity (Staphylococcus aureus [4]): Active; Activity (Staphylococcus aureus [5]): Active; Activity (Staphylococcus aureus [6]): 1.6 log10CFU/g; Activity (Staphylococcus aureus [7]): Active; Activity (Staphylococcus aureus [8]): Active
CC[C@H](C)[C@H](NC(=O)CN)C(=O)NCC(=O)N[C@@H](C)C(=O)N[C@H](C(=O)N[C@@H](CC(C)C)C(=O)N[C@@H](CCCCN)C(=O)N[C@H](C(=O)N[C@@H](CC(C)C)C(=O)N[C@H](C(=O)N[C@H](C(=O)NCC(=O)N[C@@H](CC(C)C)C(=O)N1CCC[C@H]1C(=O)N[C@@H](C)C(=O)N[C@@H](CC(C)C)C(=O)N[C@H](C(=O)N[C@@H](CO)C(=O)N[C@@H](Cc1c[nH]c2ccccc12)C(=O)N[C@H](C(=O)N[C@@H](CCCCN)C(=O)N[C@@H](CCCNC(=N)N)C(=O)N[C@@H](CCCCN)C(=O)N[C@@H](CCCNC(=N)N)C(=O)N[C@@H](CCC(N)=O)C(=O)N[C@@H](CCC(N)=O)C(N)=O)[C@@H](C)CC)[C@@H](C)CC)[C@@H](C)O)[C@@H](C)O)C(C)C)C(C)C |  |  |  |  |  |  |  |  |  |  |  |  |  |  | Activity (Cell membrane [9]): Active; fold change (FC) (Cell membrane [10]): 7; fold change (FC) (Cell membrane [11]): 4.4
COc1cc(OCCCN2CCCC(C)C2)c(CC=C(C)C)c2c1C(=O)CC(c1ccc(OCCCN3CCCC(C)C3)cc1)O2 (centres undefined) | 32 (≈ 50.6 µM) | 32 (≈ 50.6 µM) | 16 (≈ 25.3 µM) | > 1280 | 16 (≈ 25.3 µM) | 16 (≈ 25.3 µM) | 16 (≈ 25.3 µM) | 32 (≈ 50.6 µM) | 16 (≈ 25.3 µM) | 16 (≈ 25.3 µM) | > 80 | 16 (≈ 25.3 µM) | > 128 | 8 (≈ 12.6 µM) | 
COc1cc(OCCCCCN2CCCC(C)C2)c(CC=C(C)C)c2c1C(=O)CC(c1ccc(OCCCCCN3CCCC(C)C3)cc1)O2 (centres undefined) | 8 (≈ 11.6 µM) | 8 (≈ 11.6 µM) | 16 (≈ 23.2 µM) | 211 | 8 (≈ 11.6 µM) | 8 (≈ 11.6 µM) | 8 (≈ 11.6 µM) | 4 (≈ 5.81 µM) | 8 (≈ 11.6 µM) | 8 (≈ 11.6 µM) | 13.2 | 8 (≈ 11.6 µM) | > 128 | 8 (≈ 11.6 µM) | 
COc1cc(OCCCCN2CCCC(C)C2)c(CC=C(C)C)c2c1C(=O)CC(c1ccc(OCCCCN3CCCC(C)C3)cc1)O2 (centres undefined) | 16 (≈ 24.2 µM) | 8 (≈ 12.1 µM) | 16 (≈ 24.2 µM) | 120 | 8 (≈ 12.1 µM) | 8 (≈ 12.1 µM) | 16 (≈ 24.2 µM) | 16 (≈ 24.2 µM) | 8 (≈ 12.1 µM) | 8 (≈ 12.1 µM) | > 7.5 | 8 (≈ 12.1 µM) | > 128 | 8 (≈ 12.1 µM) | 
CCn1cc(C(=O)O)c(=O)c2cc(F)c(N3CCNCC3)cc21 [NORFLOXACIN] |  |  |  |  |  |  |  |  |  |  |  |  |  |  | fold change (FC) (Staphylococcus aureus [25]): 128; Activity (Staphylococcus aureus [26]): Active
COc1cc(OCCCCN2CCN(C)CC2)c(CC=C(C)C)c2c1C(=O)CC(c1ccc(OCCCCN3CCN(C)CC3)cc1)O2 (centres undefined) | 32 (≈ 48.3 µM) | 32 (≈ 48.3 µM) | 32 (≈ 48.3 µM) | > 1280 | 32 (≈ 48.3 µM) | 32 (≈ 48.3 µM) | 32 (≈ 48.3 µM) | 32 (≈ 48.3 µM) | 32 (≈ 48.3 µM) | 32 (≈ 48.3 µM) | > 40 | 32 (≈ 48.3 µM) | > 128 | 16 (≈ 24.1 µM) | 
